Data on 31 molecules can be found in patent US9981960B2, “Pyrrolidine compound and application as melanocortin receptor agonist” (MITSUBISHI TANABE PHARMA CORPORATION, priority 2014, dated 2018).

Molecules are shown by their SMILES.

The assay deals with T1, Human MC1R (Homo sapiens, UniProt Q01726).
T1 construct: endogenous in cells; host or cells: human melanoma cell line HBL
As to the kind of experiment: MCR agonist measurement (cAMP measurement), human MC1R agonist activity in human melanoma cell line HBL. Conditions: HBL cells; for EC50: 37° C. for 30 minutes, intracellular cAMP by fluorescence method; for Human MC1R IA %: Intrinsic Activity, vehicle cAMP = 0%, αMSH at 10^-6 M = 100%. Type of assay: cell-based. The method, then:
(1) Method for Culturing Cells
Human MC1R agonist activity measurement was carried out by using human melanoma cell line HBL. Culture of HBL: F-10 Nutrient Mixture containing 10% FCS and Penicillin-streptomycin was used in the culture.
(2) cAMP Assay and Data Calculation
Each compound solution having each concentration was mixed with cAMP assay buffer (HBSS (Hank's Balanced Salt Solution) containing 10 mM HEPES and 0.1% BSA), and dispensed into 96 well plate. HBL was suspended in cAMP assay buffer containing 0.5 mM IBMX so that the concentrate became 5×10^4/mL, dispensed into the above 96 well plate, then mixed, left to stand at 37° C. for 30 minutes, and then the intracellular […] concentration was measured by fluorescence method using Envision (ex. 320 nm, em. 590 nm and 665 nm).

T1 sequence (Q01726 whole entry): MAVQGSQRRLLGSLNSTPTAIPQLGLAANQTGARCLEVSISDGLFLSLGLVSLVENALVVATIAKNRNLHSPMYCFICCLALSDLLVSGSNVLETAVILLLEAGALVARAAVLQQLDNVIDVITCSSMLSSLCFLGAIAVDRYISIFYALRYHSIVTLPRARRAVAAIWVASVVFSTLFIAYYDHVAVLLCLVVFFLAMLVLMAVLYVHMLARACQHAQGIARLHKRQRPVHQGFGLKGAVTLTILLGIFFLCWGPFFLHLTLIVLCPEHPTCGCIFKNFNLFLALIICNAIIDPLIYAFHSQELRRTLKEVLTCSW

On to `COc1ccc([C@@H]2CN(C(C)(C)C)C[C@@]2(F)C(=O)N2C[C@H](c3ccc(C(F)(F)F)cc3N3CCC(C(=O)O)CC3)[C@@H](C#N)C2)cc1.Cl.Cl` [Example 227, 1-{2-[(3S,4R)-1-{[(3R,4R)-1-tert-butyl-3-fluoro-4-(4-methoxyphenyl)pyrrolidin-3-yl]carbonyl}-4-cyanopyrrolidin-3-yl]-5-(trifluoromethyl)phenyl}piperidine-4-carboxylic acid dihydrochloride], for which a half-maximal effect (EC50) was put at 85 nM and the “Human MC1R IA %” value amounted to 114%.

Take `COC[C@H]1CN(C(=O)[C@]2(F)CN(C3CCCC3)C[C@H]2c2ccc(OC)cc2)C[C@@H]1c1ccc(C(F)(F)F)cc1N1CCC(C(=O)N2CCC[C@@H]2C(=O)O)CC1` [Example 270]: the EC50 was determined as 5.6 nM and the “Human MC1R IA %” value is given as 82%.

Consider `COC[C@H]1CN(C(=O)[C@]2(F)CN(c3ccc(OC)nn3)C[C@H]2c2ccc(OC)cc2)C[C@@H]1c1ccc(C(F)(F)F)cc1N1CCC(C(=O)O)CC1` [Example 64], for which the EC50 is 19 nM and the “Human MC1R IA %” value came out at 53%.

In the case of `COc1ccc([C@@H]2CN(CCCS(=O)(=O)N3CCCC3)C[C@@]2(F)C(=O)N2CCC(c3ccc(C(F)(F)F)cc3N3CCC(C(=O)O)CC3)CC2)cc1` [Example 45], the EC50 stood at 23 nM and the “Human MC1R IA %” value worked out at 105%.

For the molecule `COC[C@@H]1C[C@@H](c2ccc(C(F)(F)F)cc2N2CCC(C(=O)O)CC2)CN1C(=O)[C@]1(F)CN(c2ccnc(C)n2)C[C@H]1c1ccc(OC)cc1` [Example 67], the EC50 was 2 nM and the “Human MC1R IA %” value stood at 78%.

Take `COc1ccc([C@@H]2CN(C(C)(C)C)C[C@@]2(F)C(=O)N2CCC(c3ccc(C(F)(F)F)cc3N3CCC(N(C)C)CC3)CC2)cc1` [Example 205]: a half-maximal response (EC50) required 38 nM and the “Human MC1R IA %” value worked out at 67%.

For `COc1ccc([C@@H]2CN(C(C)(C)C)C[C@@]2(F)C(=O)N2CCC(c3ccc(C(F)(F)F)cc3N3C[C@@H]4[C@H](C3)[C@H]4C(=O)O)CC2)cc1` [Example 94], the EC50 turned out to be 49 nM and the “Human MC1R IA %” value was 83%.

Consider `CNC(=O)C1CCN(c2cc(C(F)(F)F)ccc2C2CCN(C(=O)[C@]3(F)CN(C(C)(C)C)C[C@H]3c3ccc(OC)cc3)CC2)CC1.Cl.Cl` [Example 231, 1-[2-(1-{[(3R,4R)-1-tert-butyl-3-fluoro-4-(4-methoxyphenyl)pyrrolidin-3-yl]carbonyl}piperidin-4-yl)-5-(trifluoromethyl)phenyl]-N-methylpiperidine-4-carboxamide dihydrochloride], for which the EC50 came to 11 nM and the “Human MC1R IA %” value came out at 82%.

In the case of `COc1ccc([C@@H]2CN(C(C)(C)C)C[C@@]2(F)C(=O)N2CC(c3ccc(C(F)(F)F)cc3N3CCC(C(=O)O)CC3)C2)cc1` [Example 84], the EC50 came out at 40 nM and the “Human MC1R IA %” value was 119%.

On to `CCO[C@H]1CC[C@H](N2C[C@@H](c3ccc(OC)cc3)[C@](OC)(C(=O)N3C[C@H](c4ccc(C(F)(F)F)cc4N4CCC(C(=O)O)CC4)[C@@](F)(COC)C3)C2)CC1` [Example 141], for which the EC50 came to 3.6 nM and the “Human MC1R IA %” value is listed as 105%.

`COC[C@@H]1C[C@@H](c2ccc(C(F)(F)F)cc2N2CCC(C(=O)O)CC2)CN1C(=O)[C@]1(F)CN(c2ccnc(C)c2)C[C@H]1c1ccc(OC)cc1` [Example 68]: the EC50 came out at 0.94 nM and the “Human MC1R IA %” value stood at 111%.

With `COC[C@H]1CN(C(=O)[C@]2(F)CN(C3CCOCC3)C[C@H]2c2ccc(OC)cc2)C[C@@H]1c1ccc(C(F)(F)F)cc1N1CCC(C#N)CC1.Cl.Cl` [Example 278, 1-{2-[(3S,4R)-1-{[(3R,4R)-3-fluoro-4-(4-methoxyphenyl)-1-(tetrahydro-2H-pyran-4-yl)pyrrolidin-3-yl]carbonyl}-4-(methoxymethyl)pyrrolidin-3-yl]-5-(trifluoromethyl)phenyl}piperidine-4-carbonitrile dihydrochloride], the EC50 turned out to be 39 nM and the “Human MC1R IA %” value is reported as 46%.

Regarding `COC[C@H]1CN(C(=O)[C@]2(F)CN(c3ccnc(C)c3)C[C@H]2c2ccc(OC)cc2)C[C@@H]1c1ccc(C(F)(F)F)cc1N1CCC(C(=O)O)CC1` [Example 59], the EC50 was 1.2 nM and the “Human MC1R IA %” value was found to be 98%.

Take `COC[C@H]1CN(C(=O)[C@]2(F)CN(C3CCOCC3)C[C@H]2c2ccc(OC)cc2)C[C@@H]1c1ccc(C(F)(F)F)cc1N1CCC(c2nnn[nH]2)CC1.Cl.Cl` [Example 279, [(3R,4R)-3-fluoro-4-(4-methoxyphenyl)-1-(tetrahydro-2H-pyran-4-yl)pyrrolidin-3-yl][(3R,4S)-3-(methoxymethyl)-4-{2-[4-(1H-tetrazol-5-yl)piperidin-1-yl]-4-(trifluoromethyl)phenyl}pyrrolidin-1-yl]methanone dihydrochloride]: the EC50 was 59 nM and the “Human MC1R IA %” value is recorded as 90%.

With `COc1ccc([C@@H]2CN(C3CCN(C(CF)CF)CC3)C[C@@]2(F)C(=O)N2CC[C@@H](c3ccc(C(F)(F)F)cc3N3CCC(C(=O)O)CC3)C2)cc1` [Example 219], the EC50 came to 6.7 nM and the “Human MC1R IA %” value was determined as 104%.

Turning to `COc1ccc([C@@H]2CN(C(C)(C)C)C[C@@]2(F)C(=O)N2CCC(c3ccc(C(F)F)cc3N3CCC(C(=O)O)CC3)CC2)cc1` [Example 198], the EC50 is 45 nM and the “Human MC1R IA %” value amounted to 66%.

As to `COc1ccc([C@@H]2CN(C(C)(C)C)C[C@@]2(F)C(=O)N2CCC(c3ccc(C(F)(F)F)cc3N3CCC(C(=O)NS(C)(=O)=O)CC3)CC2)cc1` [Example 274], it took 7.5 nM to reach a half-maximal effect (EC50) and the “Human MC1R IA %” value is given as 89%.

In the case of `CCO[C@H]1CC[C@H](N2C[C@@H](c3ccc(OC)cc3)[C@](OC)(C(=O)N3C[C@H](COC)[C@@H](c4ccc(C(F)(F)F)cc4N4CCC(C(=O)O)CC4)C3)C2)CC1` [Example 140], the EC50 turned out to be 4.1 nM and the “Human MC1R IA %” value was 98%.

With `COC[C@H]1CN(C(=O)[C@]2(F)CN(c3ccc(C)nn3)C[C@H]2c2ccc(OC)cc2)C[C@@H]1c1ccc(C(F)(F)F)cc1N1CCC(C(=O)O)CC1` [Example 63], the EC50 is 24 nM and the “Human MC1R IA %” value was 92%.

In the case of `COC[C@H]1CN(C(=O)[C@]2(F)CN([C@H]3CC[C@H](OC)CC3)C[C@H]2c2ccc(OC)cc2)C[C@@H]1c1ccc(C(F)(F)F)cc1N1CCC(C)(C(=O)O)CC1` [Example 103], the EC50 came to 14 nM and the “Human MC1R IA %” value was 102%.

As to `COC[C@H]1CN(C(=O)[C@]2(F)CN([C@H]3CC[C@H](OC)CC3)C[C@H]2c2ccc(OC)cc2)C[C@@H]1c1ccc(C(F)(F)F)cc1N1CCC(C(=O)N(C)C)CC1` [Example 256], the EC50 is 3 nM and the “Human MC1R IA %” value is given as 115%.

For the molecule `COC[C@H]1CN(C(=O)[C@]2(F)CN(C3CCCC3)C[C@H]2c2ccc(OC)cc2)C[C@@H]1c1cc(F)c(F)cc1N1CCC(C(=O)O)CC1` [Example 201], the midpoint of the response, the EC50, lay at 31 nM and the “Human MC1R IA %” value stood at 107%.

Consider `COc1ccc([C@@H]2CN(C(C)(C)C)C[C@@]2(F)C(=O)N2CC[C@H](c3ccc(C(F)(F)F)cc3N3CCC(C(=O)O)CC3)C2)cc1.Cl.Cl` [Example 286b, 1-{2-[(3R)-1-{[(3R,4R)-1-tert-butyl-3-fluoro-4-(4-methoxyphenyl)pyrrolidin-3-yl]carbonyl}pyrrolidin-3-yl]-5-(trifluoromethyl)phenyl}piperidine-4-carboxylic acid dihydrochloride], for which the EC50 turned out to be 189 nM and the “Human MC1R IA %” value is given as 71%.

On to `COc1ccc([C@@H]2CN(C(C)(C)C)C[C@@]2(F)C(=O)N2CCC(c3ccc(C(F)(F)F)cc3N3CCC(C(=O)N(C)C)CC3)CC2)cc1` [Example 234], for which a half-maximal response (EC50) required 7.3 nM and the “Human MC1R IA %” value is 105%.

In the case of `COC[C@@H]1C[C@@H](c2ccc(C(F)(F)F)cc2N2CCC(C(=O)O)CC2)CN1C(=O)[C@]1(F)CN(C2CCC2)C[C@H]1c1ccc(OC)cc1` [Example 139], the EC50 was 0.8 nM and the “Human MC1R IA %” value is listed as 80%.

`CCO[C@H]1CC[C@@H](N2C[C@@H](c3ccc(OC)cc3)[C@](F)(C(=O)N3C[C@H](COC)[C@@H](c4ccc(C(F)(F)F)cc4N4CCC(C(=O)O)CC4)C3)C2)CC1` [Example 119]: the midpoint of the response, the EC50, lay at 15 nM and the “Human MC1R IA %” value worked out at 53%.

As for `COC[C@@H]1C[C@@H](c2ccc(C(F)(F)F)cc2N2CCC(C(=O)O)CC2)CN1C(=O)[C@]1(F)CN([C@H]2CC[C@H](OC)CC2)C[C@H]1c1ccc(OC)cc1` [Example 135], the EC50 amounted to 0.47 nM and the “Human MC1R IA %” value worked out at 96%.

For the molecule `COc1ccc([C@@H]2CN(C(C)(C)C)C[C@@]2(F)C(=O)N2CCC(c3ccc(C(F)(F)F)cc3[C@H]3CC[C@H](C(=O)O)CC3)CC2)cc1` [Example 85], the concentration giving a half-maximal response (EC50) was 60 nM and the “Human MC1R IA %” value is given as 75%.

With `COC[C@H]1CN(C(=O)[C@]2(F)CN(C3CCCCC3)C[C@H]2c2ccc(OC)cc2)C[C@@H]1c1ccc(C(F)(F)F)cc1N1CCC(C(=O)O)CC1` [Example 27], a half-maximal effect (EC50) was put at 6.5 nM and the “Human MC1R IA %” value amounted to 78%.

In the case of `COc1ccc([C@@H]2CN(C(C)(C)C)C[C@@]2(F)C(=O)N2CCC(C#N)(c3ccc(C(F)(F)F)cc3-c3ccc(C(=O)O)cc3)CC2)cc1` [Example 87], the 50% effective concentration (EC50) was 56 nM and the “Human MC1R IA %” value is recorded as 90%.

On to `COc1ccc([C@@H]2CN(C(C)(C)C)C[C@@]2(F)C(=O)N2CCC(c3ccc(C(F)(F)F)cc3-c3ccc(C(=O)O)cc3)CC2)cc1` [Example 77], for which the EC50 is 69 nM and the “Human MC1R IA %” value came to 83%.

As a reminder, the EC50 is the concentration needed to bring the measured effect to its halfway point.
